{"source": "a melting point compilation (Tetko et al.; mined from patent text by program, amines drawn as free bases though some values may be those of a salt)"}
{"units": {"melting point": "°C"}}
{"smiles": "COc1cc2c(c3c1OC(C)(C)C3)C(c1cccc(O)c1)=NC(C)(C)C2", "melting point": "208 to 209"}
{"smiles": "Nc1ccccc1Nc1ccccc1F", "melting point": "82 to 83"}
{"smiles": "O=C(O)C1Cc2c(c(Cl)cc3c(-c4cccc(Cl)c4)noc23)O1", "note": "(stereo not given)", "melting point": "168 to 169"}
{"smiles": "CCC(CC)Oc1ccc(/C=C/C(=O)Nc2ccccc2C(=O)O)cc1OC", "melting point": "82 to 85"}
{"smiles": "CCOC(=O)NNc1n[nH]c2cc(Cl)ccc12", "melting point": "210 to 211"}
{"smiles": "Cc1cccc2nc(CSc3ncnc4[nH]cnc34)n(-c3ccccc3Cl)c(=O)c12", "melting point": "228 to 230"}
{"smiles": "COc1ccc(Br)cc1C1=NC(C)(C)CO1", "melting point": 41}
{"smiles": "O=C(O)C(=O)Nc1ccc2[nH]c(=O)oc2c1", "melting point": 254}
{"smiles": "O=C(O)Cn1c(=O)c(=O)[nH]c2ccccc21", "melting point": "> 300"}
{"smiles": "CS(=O)C1CC(=O)N1CC(=O)NCc1ccccc1", "note": "(single isomer, unassigned; (-))", "melting point": "138 to 140"}
{"smiles": "CC(C)(C)NCC(O)COc1ccc2oc(-c3ccc(O)c(O)c3)cc(=O)c2c1", "note": "(stereo not given)", "melting point": 193}
{"smiles": "Cc1cc(C)cc(NCc2ccc3nc(NCC(O)CO)n(Cc4nc(C)ccc4O)c3c2)c1", "note": "(stereo not given)", "melting point": 128}
{"smiles": "COC(=O)C=Cc1ccc(-n2c(C)ccc2C)cc1", "melting point": "73 to 75"}
{"smiles": "CSC1=Nc2ccccc2C(=O)N(C)C1c1ccccc1", "note": "(stereo not given)", "melting point": "130 to 132"}
{"smiles": "COc1ccc(C(=O)Nc2ccc(C(=O)O)c3ccccc23)cc1OC", "melting point": "256 to 259"}
{"smiles": "COc1cc(OC)c2c(=O)nc(-c3cc(C)c(O)c(C)c3)n(C)c2c1", "melting point": "188 to 189"}
{"smiles": "C1=c2ccccc2=C2N=c3ccc4ccccc4c3=C2C1", "melting point": 238}
{"smiles": "O=C(C(=Cc1ccc(Cl)cc1)c1ccc(Cl)cc1)c1ccc(O)cc1", "melting point": "132 to 136"}
{"smiles": "COc1ccc(-c2cnn(-c3cccc(C(=O)O)c3)c2)cc1", "melting point": "238 to 239"}
{"smiles": "O=C1NCCCCC1c1cccc(OCc2ccccc2)c1", "note": "(stereo not given)", "melting point": "119 to 122"}
{"smiles": "CC(C)Nc1nc2ccccc2n2c(C(F)(F)F)nnc12", "melting point": "185 to 187"}
{"smiles": "O=c1c2c(nc3ccc(-c4nnn[nH]4)cn13)CSC2", "melting point": 285}
{"smiles": "c1ccc2[nH]c(Cn3ccnc3)nc2c1", "melting point": "198 to 200"}
{"smiles": "Cc1oc(-c2ccccc2)nc1CCOc1ccc(CC(F)(C(=O)O)c2ccccc2)cc1", "note": "(stereo not given)", "melting point": "163 to 165"}
{"smiles": "Cc1cc2c(cc1Br)N(C1CC1)C=NS2(=O)=O", "melting point": "219 to 220"}
{"smiles": "CC1(CO)Cc2nnc(-c3ccc(-c4ccc(F)cc4)cc3C(F)(F)F)n2CCS1", "note": "(stereo not given)", "melting point": "202 to 204"}
{"smiles": "CN(C)C(=O)N1CCN(Cc2ccc3c(c2)-c2[nH]nc(-c4ccsc4)c2C3)CC1", "melting point": "214 to 216"}
{"smiles": "CN(C)C1(c2ccccc2)CCC(CNC(=O)N2CCCC(c3c[nH]c4ccc(F)cc34)C2)CC1", "note": "(stereo not given)", "melting point": "98 to 101"}
{"smiles": "COC(=O)[C@@H]1C[C@@H](O)CN1S(=O)(=O)c1ccc(Cl)c(COc2cccc3c(C)cc(C)nc23)c1Cl", "melting point": 100}
{"smiles": "CC1(C)CC(N=[N+]=[N-])c2cc(C#N)ccc2O1", "note": "(stereo not given)", "melting point": "63 to 64"}
{"smiles": "COc1cccc([C@H]2O[C@H](CC(=O)Nc3ccc4[nH]c(C(=O)O)cc4c3)C(=O)N(CC(C)(C)CO)c3ccc(Cl)cc32)c1OC", "melting point": "200 to 201"}
{"smiles": "CCOC(=O)c1ccc2[nH]c(C(=O)OCc3ccccc3)cc2c1", "melting point": 123}
{"smiles": "OCc1cncn1Cc1ccccc1", "melting point": "131 to 135"}
{"smiles": "Cc1cccc(Cl)c1CC#N", "melting point": "49 to 51"}
{"smiles": "CCCN1C(=O)CN(c2ccccc2)C1=O", "melting point": 97}
{"smiles": "CC(CCCc1ccccc1)(C(=O)O)c1ccc(CCCNC(=O)c2ccc(-c3ccccn3)cc2)cc1", "note": "(stereo not given)", "melting point": "118 to 119"}
{"smiles": "O=C(Nc1cccc2c(CO)c(Br)cnc12)c1c(Cl)cccc1Cl", "melting point": "246 to 247"}
{"smiles": "O=c1c(-c2cc[nH]n2)coc2ccccc12", "melting point": "141 to 142"}
{"smiles": "CC(=Cc1ccccc1)n1c(=O)n(CCCCCl)c2ccccc21", "melting point": 90}
{"smiles": "CCCCCCCNC(=O)N(C)c1cccc(-c2ccc(C=C(OCC)C(=O)O)cc2OCCCC)c1", "melting point": 103}
{"smiles": "CC(=O)N(C)Cc1ccc(C(=O)Cn2cnc3cc(-c4ccc(Cl)cc4)sc3c2=O)cc1", "melting point": "250 to 251"}
{"smiles": "Cc1cc(CCCOc2c(C)cc(-c3noc(=N)[nH]3)cc2C)on1", "melting point": "175 to 183"}
{"smiles": "Cc1nc[nH]c1CSCCC1=NCCS(=O)(=O)N1", "melting point": "146 to 147"}
{"smiles": "O=c1[nH]c2ccccc2c(=O)n1CCCCN1CCC(OC(c2ccccc2)c2ccccc2)CC1", "melting point": "140 to 142"}
{"smiles": "C[C@H](NC(=O)COCCN1C(=O)c2ccccc2C1=O)C(=O)N[C@H](CCC(=O)OCc1ccccc1)C(N)=O", "melting point": "205 to 206"}
{"smiles": "O=C(O)c1ccc(NC(c2ccc(Cl)cc2)c2ccc(Cl)cc2)cc1", "melting point": "245 to 247"}
{"smiles": "Cc1cc(C)c(C=O)c(-c2ccc(Cl)c(Cl)c2)c1", "melting point": "80 to 81"}
{"smiles": "CCN(CC)C(=O)COc1nc2cc(OC)cc(OC)c2cc1-c1ccc(OC)cc1", "melting point": "146 to 147"}
{"smiles": "O=C(O)C(O)N1C(=O)CCN1c1ccccc1", "note": "(stereo not given)", "melting point": "127 to 129"}
{"smiles": "CCc1nc2ccc(Cl)nc2n1Cc1ccc2oc(-c3ccccc3-c3nnn[nH]3)c(Br)c2c1", "melting point": "162 to 165"}
